# ChEMBL document CHEMBL1126764, “Bicyclic thiazolidine lactam peptidomimetics of the dopamine receptor modulating peptide Pro-Leu-Gly-NH2” (J Med Chem, 1993)
# Biological target: Dopamine receptor (Bos taurus) (UniProt Q95136+P20288)
# Assay: Ability to enhance the binding of [3H]- ADTN to dopamine receptor from freshly dissected bovine caudate
# Type: protein assay
row,Enhancement [%],Compound
1,75,NC(=O)[C@H]1CS[C@@H]2CC[C@@H](NC(=O)C3CCCN3)C(=O)N12 (some centres not stated)
2,200,NC(=O)[C@H]1CS[C@@H]2C[C@@H](NC(=O)C3CCCN3)C(=O)N12 (some centres not stated)
